# Experimental data: US20230220035A1 (DONG-A ST CO., LTD., published 2023)
# Like-named read-outs stand apart in the source and are kept apart here.
# Experiments:
# glucagon receptor [1] = molecular target: T1, glucagon receptor (Homo sapiens, UniProt P47871); assay: Human glucagon receptor activation assay (CRE-luciferase); format: cell-based; design: host or cells: CHO-K1; settings: CHO-K1 cells transiently transfected; for Emax: 6 h, relative to glucagon, read-out: GCG receptor Maximum activation (% vs GCG); for EC50: 6 hours, 0.1% BSA, read-out: GCG receptor EC50
# Target sequence in this assay (P47871 26-477): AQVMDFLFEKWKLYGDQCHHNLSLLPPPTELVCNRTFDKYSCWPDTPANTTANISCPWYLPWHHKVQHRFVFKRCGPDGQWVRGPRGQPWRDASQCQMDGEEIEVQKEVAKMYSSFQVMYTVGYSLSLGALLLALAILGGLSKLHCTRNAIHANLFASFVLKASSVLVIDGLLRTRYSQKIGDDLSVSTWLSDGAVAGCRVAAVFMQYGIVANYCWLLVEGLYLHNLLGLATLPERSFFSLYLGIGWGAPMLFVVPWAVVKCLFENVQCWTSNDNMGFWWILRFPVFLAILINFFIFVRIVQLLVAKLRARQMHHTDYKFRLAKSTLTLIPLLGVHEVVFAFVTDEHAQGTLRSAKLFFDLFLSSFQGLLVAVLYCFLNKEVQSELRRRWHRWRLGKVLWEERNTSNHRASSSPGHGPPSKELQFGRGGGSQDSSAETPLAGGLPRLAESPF
# GLP-1 receptor [2] = molecular target: T2, GLP-1 receptor (Homo sapiens, UniProt P43220); assay: Human GLP-1 receptor activation assay (CRE-luciferase); format: cell-based; design: host or cells: CHO-K1; settings: for Emax: CHO-K1, 6 h, read-out: GLP-1 receptor Maximum activation (% vs GLP-1); for EC50: CHO-K1 cells transiently transfected, luciferase, 6 hours, 0.1% BSA
# Target sequence in this assay (P43220 24-463): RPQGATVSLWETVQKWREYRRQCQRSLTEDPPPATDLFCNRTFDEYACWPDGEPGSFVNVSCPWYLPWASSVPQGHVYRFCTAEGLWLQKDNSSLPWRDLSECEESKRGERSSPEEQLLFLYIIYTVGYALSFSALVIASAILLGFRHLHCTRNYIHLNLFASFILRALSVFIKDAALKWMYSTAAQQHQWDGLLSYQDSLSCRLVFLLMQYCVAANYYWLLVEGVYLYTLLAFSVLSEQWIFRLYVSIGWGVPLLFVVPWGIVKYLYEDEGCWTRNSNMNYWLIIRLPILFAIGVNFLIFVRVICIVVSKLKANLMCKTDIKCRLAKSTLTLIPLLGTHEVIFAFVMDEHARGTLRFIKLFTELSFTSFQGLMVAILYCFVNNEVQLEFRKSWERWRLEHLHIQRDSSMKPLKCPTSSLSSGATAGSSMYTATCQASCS
# in vivo [3] = settings: mouse
# Excerpt: (§1) ICR mice were used to evaluate the pharmacokinetics in mice of the acylated oxyntomodulin peptide analogs according to the present invention.
# in vivo [4] = settings: cynomolgus monkey, sc
# Excerpt: (§2) Cynomolgus monkeys were used to evaluate the pharmacokinetics in monkeys of the acylated oxyntomodulin peptide analogs according to the present invention.
# GLP-1 receptor [5] = molecular target: T2, GLP-1 receptor; settings: read-out: EC50 to the GLP-1 receptor; from Korean Patent Application No. 2017-0103798 / 2018-0095717; cited from earlier work
# Target sequence in this assay (P43220 24-463, species assumed): as the sequence (P43220 24-463) above
# glucagon receptor [6] = molecular target: T1, glucagon receptor; settings: from Korean Patent Application No. 2017-0103798 / 2018-0095717; cited from earlier work
# Target sequence in this assay (P47871 26-477, species assumed): as the sequence (P47871 26-477) above
# [7] = Single-dose pharmacokinetic profile in mice; settings: mouse
# Excerpt: as §1
# [8] = Single-dose pharmacokinetic profile in monkeys; settings: cynomolgus monkey, plasma, sc, 100 nmmol/kg, Monkey PK (S.C. half-life), single S.C. dose 100 nmmol/kg
# Excerpt: as §2
# [9] = system: overweight and obese patients; settings: subcutaneously for 4 weeks, 3 times per day; cited from earlier work
# [10] = ICR, sc, Mouse PK (S.C. half-life)
Emax (glucagon receptor [1]),EC50 (glucagon receptor [1]),Emax (GLP-1 receptor [2]),EC50 (GLP-1 receptor [2]),half-life (in vivo [3]; [10]),"half-life (in vivo [3]; ICR, sc, half-life in mice)",half-life (in vivo [4]; Monkey PK (S.C. half-life)),half-life (in vivo [4]; monkey PK half-life),"half-life (in vivo [3]; half-life, pharmacokinetic evaluation in mice (background))","half-life ([7]; ICR, plasma, sc, 30 nmmol/kg, Mouse PK (S.C. half-life), ICR mice, single S.C. dose 30 nmmol/kg)","half-life ([7]; in vivo, half-life, pharmacokinetic evaluation in mice (background), mice, dose not given)",half-life [8],Molecule,EC50 (GLP-1 receptor [5]),EC50 (glucagon receptor [6]),body weight loss on average [9]
100%,0.1 to 1 nM,104%,0.1 to 1 nM,> 6 h,> 6 h,12 to 18 h,> 12 h,–,–,–,–,CCCCCCCCCCCCCCCCCC(=O)N[C@@H](CCC(=O)NCCOCCOCC(=O)NCCOCCOCC(=O)NCCCC[C@H](NC(=O)[C@H](CC(=O)O)NC(=O)[C@H](CO)NC(=O)[C@@H](NC(=O)[C@H](Cc1ccccc1)NC(=O)[C@@H](NC(=O)CNC(=O)[C@H](CCC(N)=O)NC(=O)C(C)(C)NC(=O)[C@@H](N)Cc1c[nH]cn1)[C@@H](C)O)[C@@H](C)O)C(=O)N[C@@H](CO)C(=O)N[C@@H](CCCCN)C(=O)N[C@@H](Cc1ccc(O)cc1)C(=O)N[C@@H](CC(C)C)C(=O)N[C@@H](CC(=O)O)C(=O)NC(C)(C)C(=O)N[C@@H](CCCNC(=N)N)C(=O)N[C@@H](CCCNC(=N)N)C(=O)N[C@@H](C)C(=O)N[C@@H](CCC(N)=O)C(=O)N[C@@H](CC(=O)O)C(=O)N[C@@H](Cc1ccccc1)C(=O)N[C@H](C(=O)N[C@@H](CCC(N)=O)C(=O)N[C@@H](Cc1c[nH]c2ccccc12)C(=O)N[C@@H](CC(C)C)C(=O)N[C@@H](CCSC)C(=O)N[C@@H](CC(N)=O)C(=O)N[C@H](C(=O)N[C@@H](CCCCN)C(=O)N[C@@H](CCC(=O)O)C(=O)N[C@@H](Cc1ccc(O)cc1)C(=O)N[C@@H](CCC(=O)O)C(=O)N[C@@H](CCCCNC(=O)CCCCCCCCCCCCCCC(=O)O)C(=O)N[C@@H](CCC(=O)O)C(=O)N[C@@H](Cc1ccc(O)cc1)C(=O)N[C@@H](CCC(=O)O)C(=O)O)[C@@H](C)O)C(C)C)C(=O)O [Compound 2],–,–,–
100%,< 0.1 nM,90.8%,< 0.1 nM,> 6 h,> 6 h,> 24 h,> 24 h,–,–,–,–,CCCCCCCCCCCCCCCCCC(=O)N[C@@H](CCC(=O)NCCOCCOCC(=O)NCCOCCOCC(=O)NCCCC[C@H](NC(=O)[C@H](CC(=O)O)NC(=O)[C@H](CO)NC(=O)[C@@H](NC(=O)[C@H](Cc1ccccc1)NC(=O)[C@@H](NC(=O)CNC(=O)[C@H](CCC(N)=O)NC(=O)C(C)(C)NC(=O)[C@@H](N)Cc1c[nH]cn1)[C@@H](C)O)[C@@H](C)O)C(=O)N[C@@H](CO)C(=O)N[C@@H](CCCCN)C(=O)N[C@@H](Cc1ccc(O)cc1)C(=O)N[C@@H](CC(C)C)C(=O)N[C@@H](CC(=O)O)C(=O)NC(C)(C)C(=O)N[C@@H](CCCNC(=N)N)C(=O)N[C@@H](CCCNC(=N)N)C(=O)N[C@@H](C)C(=O)N[C@@H](CCC(N)=O)C(=O)N[C@@H](CC(=O)O)C(=O)N[C@@H](Cc1ccccc1)C(=O)N[C@H](C(=O)N[C@@H](CCC(N)=O)C(=O)N[C@@H](Cc1c[nH]c2ccccc12)C(=O)N[C@@H](CC(C)C)C(=O)N[C@@H](CCSC)C(=O)N[C@@H](CC(N)=O)C(=O)N[C@H](C(=O)N[C@@H](CCCCN)C(=O)N[C@@H](CCC(=O)O)C(=O)N[C@@H](Cc1ccc(O)cc1)C(=O)N[C@@H](CCC(=O)O)C(=O)N[C@@H](CCCCNC(=O)CCCCCCCCCCCCCCCCC(N)=O)C(=O)N[C@@H](CCC(=O)O)C(=O)N[C@@H](Cc1ccc(O)cc1)C(=O)N[C@@H](CCC(=O)O)C(=O)O)[C@@H](C)O)C(C)C)C(=O)O [Compound 7],–,–,–
–,–,–,–,–,–,–,–,–,< 6 h,4 h,< 6 h,CCCCCCCCCCCCCCCC(=O)N[C@@H](CCC(=O)NCCCC[C@H](NC(=O)[C@H](CC(=O)O)NC(=O)[C@H](CO)NC(=O)[C@@H](NC(=O)[C@H](Cc1ccccc1)NC(=O)[C@@H](NC(=O)CNC(=O)[C@H](CCC(N)=O)NC(=O)[C@H](CO)NC(=O)[C@@H](N)Cc1c[nH]cn1)[C@@H](C)O)[C@@H](C)O)C(=O)N[C@@H](CO)C(=O)N[C@@H](CCC(=O)O)C(=O)N[C@@H](Cc1ccc(O)cc1)C(=O)N[C@@H](CC(C)C)C(=O)N[C@@H](CC(=O)O)C(=O)N[C@@H](CO)C(=O)N[C@@H](CCC(=O)O)C(=O)N[C@@H](CCCNC(=N)N)C(=O)N[C@@H](C)C(=O)N[C@@H](CCCNC(=N)N)C(=O)N[C@@H](CC(=O)O)C(=O)N[C@@H](Cc1ccccc1)C(=O)N[C@H](C(=O)N[C@@H](C)C(=O)N[C@@H](Cc1c[nH]c2ccccc12)C(=O)N[C@@H](CC(C)C)C(=O)N[C@@H](CCC(=O)O)C(=O)N[C@@H](C)C(=O)NCC(=O)NCC(=O)O)C(C)C)C(=O)O [MEDI0382],–,–,–

# The next lines start with the molecule.
Molecule,Emax (glucagon receptor [1]),EC50 (glucagon receptor [1]),Emax (GLP-1 receptor [2]),EC50 (GLP-1 receptor [2]),half-life (in vivo [3]; [10]),"half-life (in vivo [3]; ICR, sc, half-life in mice)",half-life (in vivo [4]; Monkey PK (S.C. half-life)),half-life (in vivo [4]; monkey PK half-life),"half-life (in vivo [3]; half-life, pharmacokinetic evaluation in mice (background))","half-life ([7]; ICR, plasma, sc, 30 nmmol/kg, Mouse PK (S.C. half-life), ICR mice, single S.C. dose 30 nmmol/kg)","half-life ([7]; in vivo, half-life, pharmacokinetic evaluation in mice (background), mice, dose not given)",half-life [8],EC50 (GLP-1 receptor [5]),EC50 (glucagon receptor [6]),body weight loss on average [9]
CCCCCCCCCCCCCCCCCC(=O)N[C@@H](CCC(=O)NCCOCCOCC(=O)NCCOCCOCC(=O)NCCCC[C@H](NC(=O)[C@H](CC(=O)O)NC(=O)[C@H](CO)NC(=O)[C@@H](NC(=O)[C@H](Cc1ccccc1)NC(=O)[C@@H](NC(=O)CNC(=O)[C@H](CCC(N)=O)NC(=O)C(C)(C)NC(=O)[C@@H](N)Cc1c[nH]cn1)[C@@H](C)O)[C@@H](C)O)C(=O)N[C@@H](CO)C(=O)N[C@@H](CCCCN)C(=O)N[C@@H](Cc1ccc(O)cc1)C(=O)N[C@@H](CC(C)C)C(=O)N[C@@H](CC(=O)O)C(=O)NC(C)(C)C(=O)N[C@@H](CCCNC(=N)N)C(=O)N[C@@H](CCCNC(=N)N)C(=O)N[C@@H](C)C(=O)N[C@@H](CCC(N)=O)C(=O)N[C@@H](CC(=O)O)C(=O)N[C@@H](Cc1ccccc1)C(=O)N[C@H](C(=O)N[C@@H](CCC(N)=O)C(=O)N[C@@H](Cc1c[nH]c2ccccc12)C(=O)N[C@@H](CC(C)C)C(=O)N[C@@H](CCSC)C(=O)N[C@@H](CC(N)=O)C(=O)N[C@H](C(=O)N[C@@H](CCCCN)C(=O)N[C@@H](CCC(=O)O)C(=O)N[C@@H](Cc1ccc(O)cc1)C(=O)N[C@@H](CCC(=O)O)C(=O)N[C@@H](CCCCNC(=O)CCCCCCCCCCCCCCCCC(=O)O)C(=O)N[C@@H](CCC(=O)O)C(=O)N[C@@H](Cc1ccc(O)cc1)C(=O)N[C@@H](CCC(=O)O)C(=O)O)[C@@H](C)O)C(C)C)C(=O)O [Compound 3],98.3%,0.1 to 1 nM,98.3%,0.1 to 1 nM,> 6 h,> 6 h,> 24 h,> 24 h,3.3 h,–,–,–,< 0.01 nM,< 0.01 nM,–
HSQGTFTSDYSKYLDSRRAQDFVQWLMNTKRNRNNIA (HSQGTFTSDKSKYLDSRRAQDFVQWLMNTKRNRNNIA; listed as Homo sapiens) [oxyntomodulin],–,–,–,–,–,–,–,–,–,–,–,–,–,–,2.3 kg
